In experiment [1] the target is T1, PLK1(h) (Homo sapiens, UniProt P53350).
T1 construct: purchased Reaction Biology Corp
Nature of the experiment: PLK1 kinase IC50, Reaction Biology IC50 Profiler Express, 33P-ATP radiometric. Format: biochemical. The note with it: enzymatic; ATP 10 μM, casein substrate.

In experiment [2] the target is T2, PLK1 (Homo sapiens, UniProt P53350).
T2 construct: purchased Reaction Biology Corp
Nature of the experiment: Kinase panel screen (Kinase HotSpot), single dose 10 µM: PLK1. Conditions: duplicate, read-out: inhibitory activity against PLK1. Format: biochemical. The method, then: (§1) Assay protocol: In a final reaction volume of 25 μL, substrate[Casein], 1 μM, ATP 10 μM, PLK1(h) (5–10 mU) is incubated with 25 mM Tris pH 7.5, 0.02 mM EGTA, 0.66 mg/mL myelin basic protein, 10 mM Mg acetate, and [^33P-ATP] (specific activity approx. 500 cpm/pmol, concentration as required). The reaction is initiated by addition of the Mg-ATP mix. After incubation for 40 min at room temperature, the reaction is stopped by addition of 5 μL of a 3% phosphoric acid solution. […] The 30 selected protein kinases were ABL1, AKT1, ALK, Aurora A, AXL, AXL (R499C), BRAF (V599E), BTK, c-MER, c-MET, c-Src, CAMKK1, CDK1/cyclin A, EGFR, ERK1, FGFR3, FYN, IGF1R, JAK3, KDR/VEGFR2, LCK, LYN, MEK1, PKA, PLK1, PLK2, PLK3, PLK4/SAK, SYK, and TYRO3/SKY4.

Experiment [3] has as its target T3, PLK2 (Homo sapiens, UniProt Q9NYY3).
T3 construct: purchased Reaction Biology Corp
Nature of the experiment: Kinase panel screen (Kinase HotSpot), single dose 10 µM: PLK2. The experiment is classed as biochemical. The method, then: as §1

The target of experiment [4] is T4, PLK3 (Homo sapiens, UniProt Q9H4B4).
T4 construct: purchased Reaction Biology Corp
Nature of the experiment: Kinase panel screen (Kinase HotSpot), single dose 10 µM: PLK3. Format: biochemical. The method, then:
as §1

Experiment [5] concerns other protein kinases. Nature of the experiment: Kinase panel screen (Kinase HotSpot), single dose 10 µM: other kinases of the 30-kinase panel. Format: biochemical. The method, then:
as §1

The target in experiment [6] is T2, PLK1. Also noted: method as in ref 18 (a number printed in a supplementary file, which may have a reference list of its own: not looked up in the article's list). Conditions: Table S1, Plk1, cited from earlier work; for Activity pIC50: pIC50 = −log IC50.
The target in experiment [7] is T2, PLK1. Conditions: in words; cited from earlier work.
Experiment [8] deals with T2, PLK1. Also on record: method as in ref 17 (a number printed in a supplementary file, which may have a reference list of its own: not looked up in the article's list). The note with it: Table S2, Plk1, cited from earlier work.

Each structure is given as a SMILES string. pIC50: −log10 of the molar value. Where two headings read alike, the source gives them in different places. Bounds are passed on as bounds.

The pIC50 is the IC50 on a negative log10 scale, so that one unit is a factor of ten.

T2 sequence (P53350 whole entry): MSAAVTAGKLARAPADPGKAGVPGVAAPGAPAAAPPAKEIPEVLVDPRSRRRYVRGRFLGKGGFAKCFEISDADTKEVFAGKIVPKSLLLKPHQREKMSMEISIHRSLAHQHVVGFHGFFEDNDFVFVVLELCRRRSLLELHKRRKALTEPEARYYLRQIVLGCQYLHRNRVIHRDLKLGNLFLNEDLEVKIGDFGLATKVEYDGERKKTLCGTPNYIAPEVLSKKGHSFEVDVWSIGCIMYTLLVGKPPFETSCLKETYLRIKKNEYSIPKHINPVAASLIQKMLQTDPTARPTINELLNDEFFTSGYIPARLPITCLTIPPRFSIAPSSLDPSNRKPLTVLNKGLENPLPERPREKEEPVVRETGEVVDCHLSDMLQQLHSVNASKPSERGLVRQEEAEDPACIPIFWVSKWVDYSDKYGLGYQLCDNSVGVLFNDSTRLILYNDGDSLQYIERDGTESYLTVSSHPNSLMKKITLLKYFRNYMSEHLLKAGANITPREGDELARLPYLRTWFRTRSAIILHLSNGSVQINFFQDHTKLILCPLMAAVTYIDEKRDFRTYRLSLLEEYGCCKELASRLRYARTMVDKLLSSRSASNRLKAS
T1 sequence (P53350 whole entry): as above
T4 sequence (Q9H4B4 whole entry): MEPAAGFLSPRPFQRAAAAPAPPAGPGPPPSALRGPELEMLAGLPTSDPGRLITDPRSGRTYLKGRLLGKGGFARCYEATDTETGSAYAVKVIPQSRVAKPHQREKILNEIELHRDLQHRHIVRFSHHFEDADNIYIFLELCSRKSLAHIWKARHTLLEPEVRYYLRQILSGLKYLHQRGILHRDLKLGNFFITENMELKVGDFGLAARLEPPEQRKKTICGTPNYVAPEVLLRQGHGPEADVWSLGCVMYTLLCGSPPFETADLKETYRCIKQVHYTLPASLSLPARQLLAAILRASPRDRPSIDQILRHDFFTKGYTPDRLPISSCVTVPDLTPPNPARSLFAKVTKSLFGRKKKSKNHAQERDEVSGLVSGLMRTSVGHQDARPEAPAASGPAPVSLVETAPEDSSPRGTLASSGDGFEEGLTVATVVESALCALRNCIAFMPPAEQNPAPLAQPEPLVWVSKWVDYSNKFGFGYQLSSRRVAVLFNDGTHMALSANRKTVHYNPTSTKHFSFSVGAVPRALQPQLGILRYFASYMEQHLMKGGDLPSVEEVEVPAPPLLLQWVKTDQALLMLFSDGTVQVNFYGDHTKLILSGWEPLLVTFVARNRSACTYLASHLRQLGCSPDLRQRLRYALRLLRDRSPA
T3 sequence (Q9NYY3 whole entry): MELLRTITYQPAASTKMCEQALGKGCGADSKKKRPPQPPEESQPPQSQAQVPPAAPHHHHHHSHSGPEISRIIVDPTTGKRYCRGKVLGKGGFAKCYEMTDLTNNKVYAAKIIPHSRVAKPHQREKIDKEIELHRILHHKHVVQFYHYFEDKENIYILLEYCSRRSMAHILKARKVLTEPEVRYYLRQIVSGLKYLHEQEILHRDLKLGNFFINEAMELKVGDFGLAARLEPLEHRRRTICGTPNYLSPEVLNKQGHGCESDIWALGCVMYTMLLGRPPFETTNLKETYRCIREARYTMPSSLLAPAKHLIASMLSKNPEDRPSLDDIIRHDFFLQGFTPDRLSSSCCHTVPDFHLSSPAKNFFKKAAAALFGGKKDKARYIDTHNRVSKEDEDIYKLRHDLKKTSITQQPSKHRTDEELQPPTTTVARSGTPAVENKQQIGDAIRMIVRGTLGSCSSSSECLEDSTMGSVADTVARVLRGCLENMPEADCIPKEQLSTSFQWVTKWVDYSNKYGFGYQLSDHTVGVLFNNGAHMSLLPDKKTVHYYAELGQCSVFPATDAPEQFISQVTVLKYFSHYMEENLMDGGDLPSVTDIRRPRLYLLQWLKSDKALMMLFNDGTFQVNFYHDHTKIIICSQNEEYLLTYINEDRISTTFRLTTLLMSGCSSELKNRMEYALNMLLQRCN

Consider `NC(=O)c1nn(-c2ccnc(NC3CCOCC3)c2)cc1OCc1ccccc1` [Compound 8a], for which the pIC50 in experiment [1] is under 5.00.

In turn, `NC(=O)c1nn(-c2ccnc(NC3CCNCC3)c2)cc1OCc1ccccc1` [Compound 9a] had a pIC50 in experiment [1] of under 5.00.

In experiment [1], `NC(=O)c1nn(-c2ccnc(N[C@H]3CCNC3)c2)cc1OCc1ccccc1` [Compound 10a] gave a pIC50 of under 5.00. On to `NC(=O)c1nn(-c2ccnc(Nc3ccccc3)c2)cc1OCc1ccccc1` [Compound 13a], for which, in experiment [1], the pIC50 is 5.00. The same measure, in the same setting: the same measure for `NC(=O)c1nn(-c2ccnc(Nc3ccccc3)c2)cc1OCc1ccccc1C(F)(F)F` [Compound 13b]: 6.07; for `COc1ccccc1Nc1cc(-n2cc(OCc3ccccc3)c(C(N)=O)n2)ccn1` [Compound 14a]: 5.99; for `COc1ccccc1Nc1cc(-n2cc(OCc3ccccc3C(F)(F)F)c(C(N)=O)n2)ccn1` [Compound 14b]: 5.88. The molecule `NC(=O)c1nn(-c2ccnc(Nc3ccccc3)c2)cc1OCc1ccc(CO)cc1Cl` [Compound 15, 4-((2-chloro-4-(hydroxymethyl)benzyl)oxy)-1-(2-(phenylamino)pyridin-4-yl)-1H-pyrazole-3-carboxamide] gave a pIC50 in experiment [1] of 6.66. Besides, the inhibition at 10 µM in experiment [2] is 97%. In experiment [3], the “activity against PLK2” value is given as “no significant activity”. For the same molecule, in experiment [4], the “activity against PLK3” value is on record as “no significant activity”. Moreover, the “activity against other protein kinases” value in experiment [5] is “no significant activity”. Moreover, in experiment [6], the negative logarithm of the IC50 (pIC50) was 7.55 and the “Activity pIC50” value is 7.5528. With `COc1ccccc1Nc1cc(-n2cc(OCc3ccc(CO)cc3Cl)c(C(N)=O)n2)ccn1` [Compound 17, 4-((2-chloro-4-(hydroxymethyl)benzyl)oxy)-1-(2-((2-methoxyphenyl)amino)pyridin-4-yl)-1H-pyrazole-3-carboxamide], the negative logarithm of the IC50 (pIC50) in experiment [1] was 6.51; in experiment [6], 7.60. Besides, the “Activity pIC50” value in experiment [6] was 7.6021.

Regarding `CN1CCN(c2ccc(C(=O)Nc3n[nH]c4c3CN(C(=O)Cc3cccs3)C4)cc2)CC1` [PHA-680626], the “PLK1 IC50s” value in experiment [7] is reported as “low nanomolar”. For the molecule `CCOC(=O)c1nn(-c2ccnc(F)c2)cc1O` [compound 3], in experiment [6], the pIC50 was 6.37 and the “Activity pIC50” value is 6.3665. On to `O=Cc1n[nH]c2c1CCc1cnc(Nc3ccccc3)nc1-2` [compound 34], for which, in experiment [8], the pIC50 was 6.61. The “Activity pIC50” value in experiment [8] (pIC50 = −log IC50) is reported as 6.6055.

The values are drawn from article PMC8068361, “Design and Synthesis of a Novel PLK1 Inhibitor Scaffold Using a Hybridized 3D-QSAR Model” (International Journal of Molecular Sciences, 2021).
